{"source": "patent EP2987533B1", "about": "“7-substituted piperazin-1-yl fluoroquinolone compounds, their use in the treatment of cancer, pharmaceutical compositions and a method for preparation” (priority 2014, dated 2016)", "assay_in_all_cases": "NCI one-dose SRB growth assay", "format_in_all_cases": "cell-based", "key": {"PC-3": {"test_system": "PC-3", "conditions": "Homo sapiens; PC-3 (Prostate Cancer), 10^-5 M, 48 h; read-out: % Growth Inhibition (GI %)", "outline": "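Screening used the NCI Drug Evaluation Branch protocol on roughly 60 human cancer cell lines. Compound exposure: 10^-5M, 48 h. Cell mass quantified by sulforhodamine B binding, read by spectrophotometer, reported as % growth compared with untreated control.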"}, "UACC-257": {"test_system": "UACC-257", "conditions": "Homo sapiens; UACC-257 (Melanoma), 10^-5 M, 48 h; read-out: % Growth Inhibition (GI %)", "outline": "(§1)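 Percent growth values compare treated with untreated cells after 48 h exposure to 10^-5M compound, determined by spectrophotometric sulforhodamine B staining.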"}, "IGROV1": {"test_system": "IGROV1", "conditions": "Homo sapiens, IGROV-1; IGROV1 (Ovarian Cancer), 10^-5 M, 48 h; read-out: % Growth Inhibition (GI %)"}, "HL-60(TB)": {"test_system": "HL-60(TB)", "conditions": "Homo sapiens; HL-60(TB) (Leukemia), 10^-5 M, 48 h; read-out: % Growth Inhibition (GI %)"}, "MOLT-4": {"test_system": "MOLT-4", "conditions": "Homo sapiens; MOLT-4 (Leukemia), 10^-5 M, 48 h; read-out: % Growth Inhibition (GI %)", "outline": "as §1"}, "HCT-15": {"test_system": "HCT-15", "conditions": "Homo sapiens; HCT-15 (Colon Cancer), 10^-5 M, 48 h; read-out: % Growth Inhibition (GI %)", "outline": "as §1"}, "HOP-92": {"test_system": "HOP-92", "conditions": "Homo sapiens; HOP-92 (Non-Small Cell Lung Cancer), 10^-5 M, 48 h; read-out: % Growth Inhibition (GI %)", "outline": "as §1"}, "SW-620": {"test_system": "SW-620", "conditions": "Homo sapiens; SW-620 (Colon Cancer), 10^-5 M, 48 h; read-out: % Growth Inhibition (GI %)"}, "HCC-2998": {"test_system": "HCC-2998", "conditions": "Homo sapiens; HCC-2998 (Colon Cancer), 10^-5 M, 48 h; read-out: % Growth Inhibition (GI %)", "outline": "as §1"}, "OVCAR-5": {"test_system": "OVCAR-5", "conditions": "Homo sapiens; OVCAR-5 (Ovarian Cancer), 10^-5 M, 48 h; read-out: % Growth Inhibition (GI %)", "outline": "as §1"}, "SK-MEL-28": {"test_system": "SK-MEL-28", "conditions": "Homo sapiens; SK-MEL-28 (Melanoma), 10^-5 M, 48 h; read-out: % Growth Inhibition (GI %)", "outline": "as §1"}, "TK-10": {"test_system": "TK-10", "conditions": "Homo sapiens; TK-10 (Renal Cancer), 10^-5 M, 48 h; read-out: % Growth Inhibition (GI %)"}, "LOX IMVI": {"test_system": "LOX IMVI", "conditions": "Homo sapiens; LOX IMVI (Melanoma), 10^-5 M, 48 h; read-out: % Growth Inhibition (GI %)", "outline": "as §1"}, "NCI-H226": {"test_system": "NCI-H226", "conditions": "Homo sapiens; NCI-H226 (Non-Small Cell Lung Cancer), 10^-5 M, 48 h; read-out: % Growth Inhibition (GI %)", "outline": "as §1"}, "DU-145": {"test_system": "DU-145", "conditions": "Homo sapiens; DU-145 (Prostate Cancer), 10^-5 M, 48 h; read-out: % Growth Inhibition (GI %)", "outline": "as §1"}, "HCT-116": {"test_system": "HCT-116", "conditions": "Homo sapiens; HCT-116 (Colon Cancer), 10^-5 M, 48 h; read-out: % Growth Inhibition (GI %)", "outline": "as §1"}, "CCRF-CEM": {"test_system": "CCRF-CEM", "conditions": "Homo sapiens; CCRF-CEM (Leukemia), 10^-5 M, 48 h; read-out: % Growth Inhibition (GI %)"}, "A549/ATCC": {"test_system": "A549/ATCC", "conditions": "Homo sapiens; A549/ATCC (Non-Small Cell Lung Cancer), 10^-5 M, 48 h; read-out: % Growth Inhibition (GI %)", "outline": "as §1"}, "SF-295": {"test_system": "SF-295", "conditions": "Homo sapiens; SF-295 (CNS Cancer), 10^-5 M, 48 h; read-out: % Growth Inhibition (GI %)", "outline": "as §1"}, "SNB-19": {"test_system": "SNB-19", "conditions": "Homo sapiens; SNB-19 (CNS Cancer), 10^-5 M, 48 h; read-out: % Growth Inhibition (GI %)", "outline": "as §1"}, "UO-31": {"test_system": "UO-31", "conditions": "Homo sapiens; UO-31 (Renal Cancer), 10^-5 M, 48 h; read-out: % Growth Inhibition (GI %)", "outline": "as §1"}, "NCI-H460": {"test_system": "NCI-H460", "conditions": "Homo sapiens; NCI-H460 (Non-Small Cell Lung Cancer), 10^-5 M, 48 h; read-out: % Growth Inhibition (GI %)"}, "NCI-H23": {"test_system": "NCI-H23", "conditions": "Homo sapiens; NCI-H23 (Non-Small Cell Lung Cancer), 10^-5 M, 48 h; read-out: % Growth Inhibition (GI %)", "outline": "as §1"}, "SK-MEL-5": {"test_system": "SK-MEL-5", "conditions": "Homo sapiens; SK-MEL-5 (Melanoma), 10^-5 M, 48 h; read-out: % Growth Inhibition (GI %)", "outline": "as §1"}, "SK-MEL-2": {"test_system": "SK-MEL-2", "conditions": "Homo sapiens; SK-MEL-2 (Melanoma), 10^-5 M, 48 h; read-out: % Growth Inhibition (GI %)"}, "HT29": {"test_system": "HT29", "conditions": "Homo sapiens, HT-29; HT29 (Colon Cancer), 10^-5 M, 48 h; read-out: % Growth Inhibition (GI %)", "outline": "as §1"}}, "data": [{"smiles": "CCn1cc(C(=O)O)c(=O)c2cc(F)c(N3CCN(S(=O)(=O)c4cccc5ccccc45)CC3)cc21", "note": "[Compound 7a]", "values": [{"measurement": "inhibition at 10 µM", "setting": "PC-3", "value": 92.2, "unit": "%"}, {"measurement": "inhibition at 10 µM", "setting": "UACC-257", "value": 86, "unit": "%"}, {"measurement": "inhibition at 10 µM", "setting": "IGROV1", "value": 86.3, "unit": "%"}, {"measurement": "inhibition at 10 µM", "setting": "HL-60(TB)", "value": "> 100", "unit": "%"}, {"measurement": "inhibition at 10 µM", "setting": "MOLT-4", "value": 91.6, "unit": "%"}, {"measurement": "inhibition at 10 µM", "setting": "HCT-15", "value": 88.9, "unit": "%"}, {"measurement": "inhibition at 10 µM", "setting": "HOP-92", "value": "> 100", "unit": "%"}, {"measurement": "inhibition at 10 µM", "setting": "SW-620", "value": 77.2, "unit": "%"}, {"measurement": "inhibition at 10 µM", "setting": "HCC-2998", "value": 68.4, "unit": "%"}, {"measurement": "inhibition at 10 µM", "setting": "OVCAR-5", "value": 84.5, "unit": "%"}, {"measurement": "inhibition at 10 µM", "setting": "SK-MEL-28", "value": 40.8, "unit": "%"}, {"measurement": "inhibition at 10 µM", "setting": "TK-10", "value": 74, "unit": "%"}, {"measurement": "inhibition at 10 µM", "setting": "LOX IMVI", "value": "> 100", "unit": "%"}, {"measurement": "inhibition at 10 µM", "setting": "NCI-H226", "value": 78.1, "unit": "%"}, {"measurement": "inhibition at 10 µM", "setting": "DU-145", "value": 81.1, "unit": "%"}, {"measurement": "inhibition at 10 µM", "setting": "HCT-116", "value": 94.5, "unit": "%"}, {"measurement": "inhibition at 10 µM", "setting": "CCRF-CEM", "value": 87.9, "unit": "%"}, {"measurement": "inhibition at 10 µM", "setting": "A549/ATCC", "value": 96.2, "unit": "%"}, {"measurement": "inhibition at 10 µM", "setting": "SF-295", "value": 92.3, "unit": "%"}, {"measurement": "inhibition at 10 µM", "setting": "SNB-19", "value": 71.2, "unit": "%"}, {"measurement": "inhibition at 10 µM", "setting": "UO-31", "value": "> 100", "unit": "%"}, {"measurement": "inhibition at 10 µM", "setting": "NCI-H460", "value": 92, "unit": "%"}, {"measurement": "inhibition at 10 µM", "setting": "NCI-H23", "value": 99.9, "unit": "%"}, {"measurement": "inhibition at 10 µM", "setting": "SK-MEL-5", "value": "> 100", "unit": "%"}, {"measurement": "inhibition at 10 µM", "setting": "SK-MEL-2", "value": 91.2, "unit": "%"}, {"measurement": "inhibition at 10 µM", "setting": "HT29", "value": 96, "unit": "%"}]}, {"smiles": "CCn1cc(C(=O)O)c(=O)c2cc(F)c(N3CCN(S(=O)(=O)c4ccc(Cl)cc4Cl)CC3)cc21", "note": "[Compound 2a]", "values": [{"measurement": "inhibition at 10 µM", "setting": "PC-3", "value": 98.4, "unit": "%"}, {"measurement": "inhibition at 10 µM", "setting": "UACC-257", "value": "> 100", "unit": "%"}, {"measurement": "inhibition at 10 µM", "setting": "IGROV1", "value": 92.5, "unit": "%"}, {"measurement": "inhibition at 10 µM", "setting": "HL-60(TB)", "value": "> 100", "unit": "%"}, {"measurement": "inhibition at 10 µM", "setting": "MOLT-4", "value": 98.2, "unit": "%"}, {"measurement": "inhibition at 10 µM", "setting": "HCT-15", "value": 92.4, "unit": "%"}, {"measurement": "inhibition at 10 µM", "setting": "HOP-92", "value": "> 100", "unit": "%"}, {"measurement": "inhibition at 10 µM", "setting": "SW-620", "value": 83.7, "unit": "%"}, {"measurement": "inhibition at 10 µM", "setting": "HCC-2998", "value": 69.4, "unit": "%"}, {"measurement": "inhibition at 10 µM", "setting": "OVCAR-5", "value": 92.1, "unit": "%"}, {"measurement": "inhibition at 10 µM", "setting": "SK-MEL-28", "value": "< 10", "unit": "%"}, {"measurement": "inhibition at 10 µM", "setting": "TK-10", "value": 87.6, "unit": "%"}, {"measurement": "inhibition at 10 µM", "setting": "LOX IMVI", "value": "> 100", "unit": "%"}, {"measurement": "inhibition at 10 µM", "setting": "NCI-H226", "value": 86.9, "unit": "%"}, {"measurement": "inhibition at 10 µM", "setting": "DU-145", "value": 88.4, "unit": "%"}, {"measurement": "inhibition at 10 µM", "setting": "HCT-116", "value": 93.6, "unit": "%"}, {"measurement": "inhibition at 10 µM", "setting": "CCRF-CEM", "value": 97.2, "unit": "%"}, {"measurement": "inhibition at 10 µM", "setting": "A549/ATCC", "value": 98, "unit": "%"}, {"measurement": "inhibition at 10 µM", "setting": "SF-295", "value": "> 100", "unit": "%"}, {"measurement": "inhibition at 10 µM", "setting": "SNB-19", "value": 73.8, "unit": "%"}, {"measurement": "inhibition at 10 µM", "setting": "UO-31", "value": "> 100", "unit": "%"}, {"measurement": "inhibition at 10 µM", "setting": "NCI-H460", "value": 89.1, "unit": "%"}, {"measurement": "inhibition at 10 µM", "setting": "NCI-H23", "value": "> 100", "unit": "%"}, {"measurement": "inhibition at 10 µM", "setting": "SK-MEL-5", "value": "> 100", "unit": "%"}, {"measurement": "inhibition at 10 µM", "setting": "SK-MEL-2", "value": "> 100", "unit": "%"}, {"measurement": "inhibition at 10 µM", "setting": "HT29", "value": 98.1, "unit": "%"}]}]}
